In brackets after ≈: the same amount, converted by molar mass.
Experiments:
[1] = Solid state stability (XRPD and HPLC after uncovered storage); settings: for Relative to starting (%): HPLC purity; for Purity (area %): HPLC
Description: XRPD patterns are acquired on an X-ray powder diffraction analyzer manufactured by PANalytacal, and the scanning parameters are shown in Table A-1 below.
The free acid crystal form A and the crystal form A of the tromethamine salt were left to stand uncovered for 1/4 weeks at 25° C./60% RH and 40° C./75% RH, respectively, and then the physical and chemical stability of the samples was tested by XRPD and HPLC.

[2] = Dynamic solubility experiment at 37° C. in water, SGF, FaSSIF and FeSSIF; settings: for solubility at 1 h / solubility at 2 h / solubility at 4 h / solubility at 24 h: 37 °C, thermodynamic from solid; for Crystal form change: XRPD of centrifuged solid; for pH: pH value of filtrate;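 on all read-outs here: at each sampling time, filtrate assayed by HPLC for concentration and for pH, centrifuged solid checked by XRPD, media SGF at pH 1.8, FaSSIF 6.5, FeSSIF 5.0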
Description: In the test, the purity, dynamic solubility and stability are tested by an Agilent 1260 high-performance liquid chromatograph.
The solid at a feeding concentration of 10 mg/mL (40 mg of solid in 4 mL of solvent, calculated as free acid) was rotationally mixed at 37° C., and the solubility of each sample in four systems of water, SGF, FaSSIF, and FeSSIF was determined at different time points (1 h, 2 h, 4 h, and 24 h). After sampling at each time point, the sample was centrifuged (at 10000 rpm) and filtered (through a 0.45 μm PTFE filter head), the filtrate was determined for HPLC concentration and pH value, and the centrifuged solid samples were tested for XRPD.
200.3 mg of NaCl and 105.0 mg of Triton X-100 were weighed out and added to a 50-mL volumetric flask, purified water was added, and the mixture was completely dissolved. 136 μL of concentrated hydrochloric acid (12 M) was added, and the pH was adjusted to 1.8 with 1 M hydrochloric acid or 1 M NaOH solution. Purified water was added, and the mixed solution was brought to volume.
0.34 g of anhydrous NaH2PO4, 0.44 g of NaOH, and 0.62 g of NaCl were weighed out and added to a 50-mL volumetric flask. Purified water was added, the mixture was completely dissolved, and the pH was adjusted to 6.5 with 1 M hydrochloric acid or 1 M NaOH solution. Purified water was added, and the mixed solution was brought to volume. 0.11 g of SIF powder was then weighed out, and the mixed solution was completely dissolved.
0.82 mL of glacial acetic acid, 0.40 g of NaOH, and 1.19 g of NaCl were added to a 50-mL volumetric flask. About 48 mL of purified water was added, the mixture was completely dissolved, and the pH was adjusted to 5.0 with 1 M hydrochloric acid or 1 M NaOH solution. Purified water was added, and the mixed solution was brought to volume. 0.56 g of SIF powder was then weighed out, and the mixed solution was completely dissolved.

[3] = Hygroscopicity evaluation by dynamic vapor sorption (DVS); type: physicochemical
Description: Dynamic vapor sorption (DVS) curves are acquired on a DVS IntrInsic in Surface Measurement Systems (SMS). The relative humidity at 25° C. is corrected with the deliquescence points of LiCI, Mg (NO3)2, and KCI.
Starting at 0% RH, the test acquired the percentage change in mass of the sample when humidity changed (0% RH to 95% RH to 0% RH) at a constant temperature of 25° C.

[4] = Crystal form conversion on drying at room temperature; type: physicochemical
Description: The free acid crystal form A was dissolved in MIBK (methyl isobutyl ketone), and then the mixture was subjected to gas-liquid diffusion in an n-pentane atmosphere to obtain free acid crystal form B (XRPD pattern thereof shown in FIG. 5).

[5] = 25° C./60% RH/uncovered, 1 week
[6] = 25° C./60% RH/uncovered, 4 weeks
[7] = 40° C./75% RH/uncovered, 1 week
[8] = 40° C./75% RH/uncovered, 4 weeks
[9] = SGF, pH 1.8, simulated gastric fluid

C[C@H](NC(=O)c1c(C(F)F)nn(C)c1Oc1cccc(C(C)(F)F)c1)c1ccc(C(=O)O)cc1 [Free acid crystal form A, (S)-4-(1-(5-(3-(1,1-difluoroethyl)phenoxy)-3-(difluoromethyl)-1-methyl-1H-pyrazole-4-carboxamide)ethyl)benzoic acid]
physicochemical stability (summary statement) [1]: good physicochemical stability
HPLC purity change after placement (in words) ([1]; 25° C./60% RH and 40° C./75% RH, uncovered, 1/4 weeks): not significantly changed
crystal form change after placement (in words) ([1]; 25° C./60% RH and 40° C./75% RH, uncovered, 1/4 weeks, XRPD): not changed
Relative to starting (%) [1, 5]: 99.81%
Relative to starting (%) [1, 6]: 99.83%
Relative to starting (%) [1, 7]: 99.79%
Relative to starting (%) [1, 8]: 99.77%
Purity (area %) [1, 5]: 94.14 area %
Purity (area %) [1, 6]: 94.19 area %
Purity (area %) [1, 7]: 94.15 area %
Purity (area %) [1, 8]: 94.13 area %
Purity (area %) ([1]; Starting): 94.35 area %
solubility at 1 h ([2]; FaSSIF, pH 6.5, fassif): 1960 µg/mL (≈ 4090 µM)
solubility at 2 h ([2]; FaSSIF, pH 6.5, fassif): 1830 µg/mL (≈ 3820 µM)
solubility at 4 h ([2]; FaSSIF, pH 6.5, fassif): 1860 µg/mL (≈ 3880 µM)
solubility at 24 h ([2]; FaSSIF, pH 6.5, fassif): 1590 µg/mL (≈ 3320 µM)
solubility at 1 h ([2]; FeSSIF, pH 5, fessif): 210 µg/mL (≈ 438 µM)
solubility at 2 h ([2]; FeSSIF, pH 5, fessif): 220 µg/mL (≈ 459 µM)
solubility at 4 h ([2]; FeSSIF, pH 5, fessif): 220 µg/mL (≈ 459 µM)
solubility at 24 h ([2]; FeSSIF, pH 5, fessif): 210 µg/mL (≈ 438 µM)
solubility at 1 h [2, 9]: 40 µg/mL (≈ 83.4 µM)
solubility at 2 h [2, 9]: 40 µg/mL (≈ 83.4 µM)
solubility at 4 h [2, 9]: 50 µg/mL (≈ 104 µM)
solubility at 24 h [2, 9]: 40 µg/mL (≈ 83.4 µM)
Crystal form change ([2]; FaSSIF, 37° C., 1 h): No
Crystal form change ([2]; FaSSIF, 37° C., 2 h): No
Crystal form change ([2]; FaSSIF, 37° C., 4 h): No
Crystal form change ([2]; FaSSIF, 37° C., 24 h): No
Crystal form change ([2]; FeSSIF, 37° C., 1 h, Yes^a: converted to the free acid crystal form A): No
Crystal form change ([2]; FeSSIF, 37° C., 2 h, Yes^a: converted to the free acid crystal form A): No
Crystal form change ([2]; FeSSIF, 37° C., 4 h, Yes^a: converted to the free acid crystal form A): No
Crystal form change ([2]; FeSSIF, 37° C., 24 h, Yes^a: converted to the free acid crystal form A): No
Crystal form change ([2]; H2O, 37° C., 1 h): No
Crystal form change ([2]; H2O, 37° C., 2 h): No
Crystal form change ([2]; H2O, 37° C., 4 h): No
Crystal form change ([2]; H2O, 37° C., 24 h): No
Crystal form change ([2]; SGF, 37° C., 1 h, Yes^a: converted to the free acid crystal form A): No
Crystal form change ([2]; SGF, 37° C., 2 h, Yes^a: converted to the free acid crystal form A): No
Crystal form change ([2]; SGF, 37° C., 4 h, Yes^a: converted to the free acid crystal form A): No
Crystal form change ([2]; SGF, 37° C., 24 h, Yes^a: converted to the free acid crystal form A): No
pH ([2]; FaSSIF, 37° C., 1 h): 6.1
pH ([2]; FaSSIF, 37° C., 2 h): 6.1
pH ([2]; FaSSIF, 37° C., 4 h): 6.1
pH ([2]; FaSSIF, 37° C., 24 h): 6.1
pH ([2]; FeSSIF, 37° C., 1 h): 4.9
pH ([2]; FeSSIF, 37° C., 2 h): 4.9
pH ([2]; FeSSIF, 37° C., 4 h): 4.9
pH ([2]; FeSSIF, 37° C., 24 h): 5.0
pH ([2]; H2O, 37° C., 1 h): 8.3
pH ([2]; H2O, 37° C., 2 h): 8.4
pH ([2]; H2O, 37° C., 4 h): 8.3
pH ([2]; H2O, 37° C., 24 h): 4.8
pH ([2]; SGF, 37° C., 1 h): 1.8
pH ([2]; SGF, 37° C., 2 h): 1.8
pH ([2]; SGF, 37° C., 4 h): 1.8
pH ([2]; SGF, 37° C., 24 h): 1.8
solubility at 1 h ([2]; water): 80 µg/mL (≈ 167 µM)
solubility at 2 h ([2]; water): 80 µg/mL (≈ 167 µM)
solubility at 4 h ([2]; water): 90 µg/mL (≈ 188 µM)
solubility at 24 h ([2]; water): 130 µg/mL (≈ 271 µM)
crystal form after the vehicle solubility tests ([2]; water, SGF, FaSSIF, FeSSIF, 37° C., XRPD): unchanged
hygroscopicity (in words) ([3]; DVS, 25° C./80% RH): almost no hygroscopicity
vapor sorption ([3]; DVS, 25° C./80% RH): 0.07%
crystal form after DVS test ([3]; XRPD before and after DVS, 0% RH to 95% RH to 0% RH, 25° C.): unchanged
hygroscopicity (summary statement) ([3]; beneficial effects summary): relatively low hygroscopicity

C[C@H](NC(=O)c1c(C(F)F)nn(C)c1Oc1cccc(C(C)(F)F)c1)c1ccc(C(=O)O)cc1 [free acid crystal form B, (S)-4-(1-(5-(3-(1,1-difluoroethyl)phenoxy)-3-(difluoromethyl)-1-methyl-1H-pyrazole-4-carboxamide)ethyl)benzoic acid]
crystal form after being dried at room temperature [4]: converted into the free acid crystal form A

Reference: patent US20240368088A1, “EP4 ANTAGONIST COMPOUND AS WELL AS SALT, POLYMORPH AND USE THEREOF” (Wuhan Humanwell Innovative Drug Research and Development …, priority 2021, published 2024)
